From patent US6635802B1, “Nuclear transfer using cells cultured in serum starvation media containing apoptosis inhibitors” (The Texas A&M University System, priority 2000, dated 2003)
Where a SMILES comes first, the peptide text is derived from it. [ ]: non-standard residue; d: D form. The star is where a group is joined. Sta = CC(C)C[C@H](N)[C@@H](O)CC(=O)O; Isovaleryl = CC(C)CC(=O)*

Legend:
Format in all cases: cell-based
porcine PGCs [1] = experiment: In vitro culture of porcine PGCs on STO feeder cells with apoptosis inhibitors; AP-stained colonies counted; conditions: Table 6 protease inhibitors: MAC 0.7 pM, PA 50 μM, AEBSF 250 μM, TLCK 100 μM; normalized to control
porcine PGCs [2] = experiment: as above; conditions: for Normalized # of Colonies + SE: Table 7 antioxidants: NAC 1.0 mM, BHA 0.1 mM, BPN 1.0 mM, CIM 2.0 mM, normalized to control; for Effect on the number of PGCs, in words: single concentrations of Tables 6 and 7
Source text: Porcine fetuses were collected from hysterectomized uteri of four-way crossbred gilts (DeKalb, Ill.) between day 25 and 30 of pregnancy (estrus=day 0). Fetuses were washed in phosphate buffered saline supplemented with BSA (0.4%, Sigma St. Louis, Mo.) and penicillin/streptomycin (1%, Gibco BRL, Rockville, Md.) (PBS/BSA/PS). Urogenital ridges, appeared as longitudinal protrusions along the medial mesonephric surface, were isolated and washed in PBS/BSA/PS followed by several washes in PES medium before PGC collection. The PES medium was comprised of 50:50 mixture of Dulbecco's modified Eagle's medium (DMEM) and Ham's F10 medium supplemented with 15% fetal bovine serum (FBS), L-glutamine (2 mM), β-mercaptoethanol (0.1 mM), MEM non-essential amino acids (1%) and penicillin/streptomycin (1%). All media and supplements were purchased from Gibco BRL.
PGCs were isolated by incubation in 0.25% trypsin/1 mM EDTA solution (Gibco BRL) followed by gentle pipetting or by mechanical dissociation of ridges into small fragments followed by gentle pipetting. After tissue disruption, cells were centrifuged for 5 minutes at 250 rpm to remove tissue debris and clumps. The supernatant containing most the single cells was collected and centrifuged at 1000 rpm for 10 minutes.
PGCs were resuspended with PES medium containing cytokines, such as soluble recombinant human stem cell factor (SCF; 40 ng/ml), human basic fibroblast growth factor (bFGF; 20 ng/ml), and human leukemia inhibitory factor (LIF; 20 ng/ml). All cytokines were obtained from R&D Systems (Minneapolis, Minn.). Cell suspensions were plated on irradiated mouse STO feeder cells (3×10^6 cells per 35 mm well), prepared as previously described (Piedrahita et al., 1998) and cultured in humidified environment of 5% CO2 in air, 38° C. PGC-derived colonies with ES-like morphology after 7-10 days of culture are passaged to fresh feeders for establishment of cell lines. PGC-derived colonies were dissociated with 0.25% trypsin/1 mM EDTA (Gibco BRL) for 10 minutes. […] To identify PGC-derived cells and the state of differentiation were determined by morphology and by expression of alkaline phosphatase (AP).
AP activity was determined as described previously (Moore and Piedrahita, 1997). Briefly, culture plates were rinsed twice in PBS and fixed in 4% formaldehyde in PBS for 15 minutes at room temperature. Fixed cells were washed twice with PBS and stained in naphtol AS-MX phosphate (200 μg/ml; Sigma) and Fast Red TR salt (1 mg/ml; Sigma) in 100 mM Tris buffer, pH 8.2 for 30 minutes at room temperature. Staining was terminated by washing cultures in PBS. Specificity of AP activity was determined by staining in the presence of the AP inhibitor, tetramisole (500 μM; Sigma). Mouse ES cells also were stained as control for AP activity.
To determine the effect of apoptosis inhibitors on survival of porcine PGCs in vitro, freshly isolated PGCs were cultured as described above with or without apoptosis inhibitors, α2-macroglobulin (MAC: broad range protease inhibitor, 1.4 pM) and N-acetylcysteine (NAC: antioxidant, 1 mM). After 7-10 days of culture, colonies were stained for AP activity and counted. Studies were performed at least three replicates. The data were normalized to the treatment with no inhibitors added (control) and tested for homogeneity of variance and analyzed by ANOVA. Mean separation is accomplished by Fisher's protected LSD using software SuperANOVA (Abacus Concepts).
Dose titration of MAC (0.35, 0.7, 1.4, and 2.8 pM) and NAC (0.25, 0.5, 1.0, and 2.0 mM), to determine the optimal concentration of inhibitors, were performed.

[3] = test system: Porcine embryonic fibroblast (PEF); experiment: Cell cycle distribution (propidium iodide flow cytometry) of serum starved porcine embryonic fibroblasts
Source text: (§1) Porcine embryonic fibroblast (PEF) were isolated from day 25-28 fetuses according to the methods previously described (Hogan et al., 1994). Briefly, porcine fetuses of day 25-30 (day 0=estrus) were removed from the uterus and rinsed with PBS+penicillin/streptomycin solution (PBS/PS). Head, limbs and internal organs were removed, and the carcasses were minced with razor blades or ground using a syringe head until they were the consistency of sludge. Then these were trypsinized 2-3 times using 0.25% trypsin+EDTA for 20 minutes. The supernatant fraction was removed and centrifuged to collect the cells. The cells were plated using DMEM+10% fetal bovine serum (FBS) and cultured up to 80-90% confluency before further passage.
(§2) Bovine embryonic fibroblasts (BEF) were isolated from the fetus with 3-5 cm crown-rump length. After two or three passages, cells were plated one million cells per plate (100 mm) with growth medium (DMEM) with 2 mM L-glutamine, 0.1 mM β-mercaptoethanol and 10% FBS. After 24 hours, cells were washed with PBS 3-5 times and then serum starvation medium with 0.5% FBS was added. In addition, cells were treated with serum starvation medium containing apoptosis inhibitors such as a2-macroglobulin (0.7 pM), N-acetylcysteine (1 mM) and glutathione (2 mM). Cells were treated with serum starvation with or without apoptosis inhibitors for 5 or 10 days. Then cells were trypsinized and counted.
(§3) Cells (1×10^6) were washed in 0.15 M NaCI, fixed in 70% ethanol, and stored at −20° C. overnight or until ready to be analyzed. For analysis, cells were centrifuged, rinsed with PBS, resuspended in 500 μl of a 0.05 mg/ml propidium iodide/0.1% Triton X-100/0.2 mg/ml RNase A solution, and incubated for a minimum of 30 minutes at room temperature in the dark. Cells were analyzed by flow cytometry to determine DNA content. Modfit LT™ (Verity Software House, Topsham, Me.) was used to model the cell cycle distribution within each sample.

[4] = test system: Bovine embryonic fibroblasts (BEF); experiment: TUNEL assay (flow cytometry) of serum starved bovine embryonic fibroblasts; conditions: MAC 0.7 pM, NAC 1 mM, GSH 2 mM
Experimental: as §2
After counting, cells were fixed and stained according to protocols with the APO-BRDU kit (Phoenix Flow Systems, San Diego, Calif.). Briefly, cells were fixed in 1% paraformaldehyde in PBS on ice for 15 minutes, washed in PBS, and fixed in 70% ethanol and stored at −20° C. until use. After removing the fixative, cells were washed twice and suspended in 50 μl of labeling solution containing Br-dUTP (bromolated deoxyuridine triphosphate) and TdT (terminal deoxynucleotidyl transferase) for 60 minutes at 37° C. TdT catalyzes the addition of Br-dUTP to the 3′-OH ends of DNA strand breaks in a template independent manner. To determine base line fluorescence, control cells were incubated without TdT. After rinsing, cells were incubated with an anti-BrdU monoclonal antibody conjugated to fluorescein for 30 minutes in the dark at room temperature; apoptotic cells which contain many free 3′-OH ends are intensely labeled, while non-apoptotic cells whose DNA is largely intact have little Br-dUTP incorporation and remain unlabeled. Following counterstaining with a propidium iodide/RNase A solution for 30 minutes in the dark, which allows simultaneous analysis of cell cycle position and apoptosis, cells were analyzed on a FACSCalibur™ flow cytometer (Becton Dickinson, San Jose, Calif.). Fluorescence emissions were measured at 582±21 nm for propidium iodide and 530±15 nm for fluorescein, without spectral compensation, after excitation at 488 nm by an argon-ion laser. For analysis, gates were set so that less than 2% of samples incubated without TdT were positive. Any event above this gate was deemed TUNEL positive for samples incubated with TdT.

[5] = test system: Bovine embryonic fibroblasts (BEF); experiment: Cell cycle distribution (propidium iodide flow cytometry) of serum starved bovine embryonic fibroblasts
Experimental: as §2, §3

[6] = test system: Porcine embryonic fibroblast (PEF); experiment: TUNEL assay (flow cytometry) of serum starved porcine embryonic fibroblasts; conditions: serum starvation 5 days, MAC 0.7 pM, NAC 1 mM, GSH 2 mM, serum starved without inhibitor 26.50
Source text: as §1, §2
After counting, cells were fixed and stained according to protocols with the APO-BRDU kit (Phoenix Flow Systems, San Diego, Calif.). […] To determine base line fluorescence, control cells were incubated without TdT. […] Following counterstaining with a propidium iodide/RNase A solution for 30 minutes in the dark, which allows simultaneous analysis of cell cycle position and apoptosis, cells were analyzed on a FACSCalibur™ flow cytometer (Becton Dickinson, San Jose, Calif.). Fluorescence emissions were measured at 582±21 nm for propidium iodide and 530±15 nm for fluorescein, without spectral compensation, after excitation at 488 nm by an argon-ion laser. […]

[7] = addition during the starvation period
[8] = serum starvation 5 days, MAC 0.7 pM, NAC 1 mM, GSH 2 mM

CC(C)CC(=O)N[C@H](C(=O)N[C@H](C(=O)N[C@@H](CC(C)C)[C@@H](O)CC(=O)N[C@@H](C)C(=O)N[C@@H](CC(C)C)[C@@H](O)CC(=O)O)C(C)C)C(C)C [PA, pepstatin A] (Isovaleryl-VV[Sta]A[Sta]-OH)
Normalized # of Colonies + SE (porcine PGCs [1]): 0.85 ± 0.13

CC(C)(C)[N+]([O-])=Cc1ccccc1 [BPN, N-t-butyl-α-phenylnitrone]
Normalized # of Colonies + SE (porcine PGCs [2]): 1.95 ± 0.17

N[C@@H](CCC(=O)N[C@@H](CS)C(=O)NCC(=O)O)C(=O)O [GSH, glutathione]
Proportion of cells going into G0, in words [3, 7]: did not affect the proportion of cells going into G0
G0/G1 (%) [3, 8]: 95%
G2/M (%) [3, 8]: 3%
S (%) [3, 8]: 2%
5-day Apoptosis (%) ([4]; serum starvation 5 days, serum starved without inhibitor 15.0): 1.5%
10-day Apoptosis (%) ([4]; serum starvation 10 days, serum starved without inhibitor 20.4): 0.8%
Proportion of cells going into G0, in words [5, 7]: did not affect the proportion of cells going into G0
G2/M (%) [5, 8]: 10%
S (%) [5, 8]: 4%
G0/G1 (%) ([5]; serum starvation (0.5% FBS) 5 days, MAC 0.7 pM, NAC 1 mM, GSH 2 mM): 86%
5-day Apoptosis (%) [6]: 0.12%

COc1ccc(O)c(C(C)(C)C)c1 [BHA, butylated hydroxyanisole]
Normalized # of Colonies + SE (porcine PGCs [2]): 2.48 ± 0.27

CN/C(=N/CCSCc1nc[nH]c1C)NC#N [CIM, cimetidine]
Normalized # of Colonies + SE (porcine PGCs [2]): 1.95 ± 0.05

Cc1ccc(S(=O)(=O)N[C@@H](CCCCN)C(=O)CCl)cc1 [TLCK, Nα-p-tosyl-L-lysine chloromethyl ketone]
Effect on the number of PGCs, in words (porcine PGCs [2]): positive effect
Normalized # of Colonies + SE (porcine PGCs [1]): 1.21 ± 0.10

NCCc1ccc(S(=O)(=O)F)cc1 [AEBSF, 4-(2-aminoethyl)benzenesulfonyl fluoride]
Effect on the number of PGCs, in words (porcine PGCs [2]): positive effect
Normalized # of Colonies + SE (porcine PGCs [1]): 1.14 ± 0.07
